Consider 25 compounds from patent publication EP3539977B1, “ENZYMES WITH CHLOROGENIC ACID ESTERASE ACTIVITY AND FERULOYL ESTERASE ACTIVITY” (SternEnzym GmbH & Co. KG, priority 2014, dated 2016).

Values joined by “and” are separate entries in the source; they are usually repeats but may differ in a detail not shown here. Equal values may be shown once. Read-outs that look alike come from different tables or passages of the source.

The target of one assay is T1, RsChlE (Rhizoctonia solani, UniProt A0A1D0BQV8).
T1 sequence (A0A1D0BQV8 39-563): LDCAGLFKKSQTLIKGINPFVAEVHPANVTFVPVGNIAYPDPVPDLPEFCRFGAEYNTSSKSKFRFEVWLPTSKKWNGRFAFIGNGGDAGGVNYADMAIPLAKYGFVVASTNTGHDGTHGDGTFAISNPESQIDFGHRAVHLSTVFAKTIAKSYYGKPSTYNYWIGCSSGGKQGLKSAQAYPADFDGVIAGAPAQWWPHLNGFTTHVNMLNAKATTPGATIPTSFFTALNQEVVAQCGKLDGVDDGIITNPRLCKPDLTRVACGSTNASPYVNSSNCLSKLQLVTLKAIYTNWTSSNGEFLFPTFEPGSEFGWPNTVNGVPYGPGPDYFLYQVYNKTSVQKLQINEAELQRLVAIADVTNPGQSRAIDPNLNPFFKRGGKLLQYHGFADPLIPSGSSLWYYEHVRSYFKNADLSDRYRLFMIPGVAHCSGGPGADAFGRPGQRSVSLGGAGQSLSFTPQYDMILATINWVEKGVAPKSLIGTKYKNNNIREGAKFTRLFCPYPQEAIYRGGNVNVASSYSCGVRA
In words: Substrate specificity of purified RsChlE. In kind it is biochemical. Conditions: 1 mM (or 1.95 mM) substrate, 1 h, 30 °C, 50 mM Bis-Tris pH 6.0. The protocol:
(§1) Chlorogenic acid esterase activity was determined at 37 °C in 50 mM Tris buffer at pH 7.5 using chlorogenic acid and methyl ferulate as standard substrates, unless otherwise stated. The release of the corresponding free acids was analyzed with HPLC-UV. If appropriate, the hydrolysis of other benzoic and cinnamic acid ester derivatives as well as feruloylated saccharides was measured with the same method. After incubation for one hour the reaction was terminated by doubling the reacting volume with acetonitrile. Samples were centrifuged (15 min, 15.000 × g) before injection to the HPLC (Chromolith Performance RP-18e reverse-phase column, 100 × 4.6 mm, Merck, Darmstadt, Germany). […] Substance elution was detected at 232 nm (benzoic and 3-hydroxybenzoic acid), 254 nm (4-hydroxybenzoic and vanillic acid), 275 nm (cinnamic and gallic acid), 306 nm (p-coumaric acid) and 323 nm (ferulic, caffeic, chlorogenic and sinapic acid) using a Shimadzu UV-Vis detector (SPD-10A VP, Shimadzu Deutschland GmbH, Duisburg, Germany). One unit of enzyme activity was defined as the amount of enzyme releasing one µmοl of free acid per minute under the specified conditions. All measurements were performed at least twice.
After purification of the recombinant RsChlE from the culture supernatant of Pichia pastoris with Ni-NTA, the enzyme was biochemically characterized. The experiments were performed like for UmChlE. pH and temperature optimums were analyzed. […] Table 4: Substrate specificity of purified RsChIE.
Purified RsChlE was incubated with 1 mM, or in an alternative experiment, 1.95 mM of different substrates for 1 h (at 30 °C, 50 mM Bis-Tris buffer pH 6.0). […] Numbers in parentheses are the estimates of the standard error.

For assay [1], the target named is T2, UmChlE (Mycosarcoma maydis, UniProt A0A060S684, P492L).
T2 construct: purification of the chlorogenic acid esterase UmChlE from culture supernatant of U. maydis was accomplished by three complementary separation steps; made in house; host or cells: Ustilago maydis itself (native producer), culture supernatant; Q Sepharose FF, preparative IEF, polyamide column
T2 sequence (A0A060S684 22-585, stated change not applied): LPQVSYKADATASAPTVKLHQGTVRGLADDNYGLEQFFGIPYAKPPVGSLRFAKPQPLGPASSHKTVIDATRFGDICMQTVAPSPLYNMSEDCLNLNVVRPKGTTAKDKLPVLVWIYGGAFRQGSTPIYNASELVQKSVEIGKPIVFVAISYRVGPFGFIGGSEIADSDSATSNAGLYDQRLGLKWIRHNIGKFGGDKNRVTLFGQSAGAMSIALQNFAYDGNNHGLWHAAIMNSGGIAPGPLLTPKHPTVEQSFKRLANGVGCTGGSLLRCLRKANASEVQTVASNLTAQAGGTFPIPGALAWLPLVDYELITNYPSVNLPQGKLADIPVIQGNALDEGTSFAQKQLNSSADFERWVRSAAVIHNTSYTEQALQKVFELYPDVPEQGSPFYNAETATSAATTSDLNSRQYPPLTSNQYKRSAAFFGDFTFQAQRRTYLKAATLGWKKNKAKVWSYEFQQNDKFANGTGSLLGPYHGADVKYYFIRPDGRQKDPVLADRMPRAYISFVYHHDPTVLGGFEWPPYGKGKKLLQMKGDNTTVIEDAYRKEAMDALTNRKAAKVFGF
In kind it is biochemical, Ustilago maydis. The note with it: 1 mM (or 1.95 mM) substrate, 1 h, 37 °C, 50 mM Tris pH 7.5, ND = activity not detectable; for Relative esterase activity: chlorogenic acid = 100 %, standard error in parentheses. The protocol:
as §1
Substrate specificity of the UmChlE was determined towards different cinnamate and benzoate esters as well as natural substrates, such as F-A, F-AX and F-AXG, with activity assays as described above. Three mM stock solutions of all substrates were prepared in water.
Purified UmChlE was incubated with 1 mM, or, in a further experiment, 1.95 mM of different substrates for 1 h (at 37 °C, 50 mM Tris buffer pH 7.5). Relative enzyme activities were calculated based on the most preferred substance of the UmChIE: chlorogenic acid which was set to 100 %. Numbers in parentheses are the estimates of the standard error.

The target in assay [2] is T2, UmChlE. In words: biochemical. In kind it is biochemical, Ustilago maydis. Conditions: for Relative esterase activity: 1 h, 37 °C, 50 mM Tris pH 7.5. The protocol: as §1
Enzyme tolerance to different solvents was investigated in the presence of 50 % (v/v) acetone, acetonitrile, diethyl ether, DMF, DMSO, ethanol, isoamyl alcohol, isobutyl alcohol, isopropanol, methanol, n-hexane, n-heptane, tert-butyl methyl ether or toluene, respectively, in 50 mM Tris buffer pH 7.5 containing 0.7 mM substrate. In an additional experiment, 0.84 mM substrate was used. After incubation (60 min, 37 °C, 900 rpm) the mixture was applied for HPLC analysis as described above. […] The effect of high salt concentrations (0.1 - 3 M NaCl) on enzyme activity was investigated, too.
Various metal ions and enzyme inhibitors were examined for their effect on chlorogenic acid esterase activity (Table 2). […] Hg^2+ reacts with thiol groups and can also reduce disulphide bonds (40). […] Table 2 Effect of metal ions, inhibitors and NaCl on UmChIE activity.
Remaining enzyme activity was measured after 1 h incubation with 1mM, or, in a further experiment, 1.95 mM methyl ferulate and different metal ions as well as inhibitors in concentrations listed above (at 37 °C, 50 mM Tris buffer pH 7.5). Numbers in parentheses are the estimates of the standard error. A sample without additive was used for the calculation of relative enzyme activities. ND: activity not detectable.

Where [3] appears, read: 5 mM additive, 1 mM (or 1.95 mM) methyl ferulate, without additive = 100 %, standard error in parentheses, ND = activity not detectable.

Take `COC(=O)/C=C/c1ccc(O)c(O)c1` [methyl caffeate]: at RsChlE, the Specific activity is listed as 4.61 U/mg. At UmChlE [1], this compound had a Specific esterase activity of 0.49 U mg^-1.

For `O=[N+]([O-])[O-].O=[N+]([O-])[O-].O=[N+]([O-])[O-].[Cr+3]` [Cr(NO3)3], the Relative esterase activity on UmChlE [2] (setting [3]) is recorded as 69 (3.54) %; on UmChlE [2] (5 mM additive, 1 mM (or 1.95 mM) methyl ferulate, without additive = 100 %, standard error in parentheses, ND = activity not detectable, listed as Cr^3+) it was 50 - 76%.

`O=S(=O)([O-])[O-].O=S(=O)([O-])[O-].O=S(=O)([O-])[O-].[Al+3].[Al+3]` [Al2(SO4)3]: the Relative esterase activity on UmChlE [2] (setting [3]) is 53 (0.12) %; on UmChlE [2] (5 mM additive, 1 mM (or 1.95 mM) methyl ferulate, without additive = 100 %, standard error in parentheses, ND = activity not detectable, listed as Al^3+), 50 - 76%.

Take `O=S(=O)([O-])[O-].[Fe+2]` [FeSO4]: on UmChlE [2] (setting [3]), the Relative esterase activity is given as 102 (0.50) %.

Turning to `O=S(=O)([O-])[O-].[Zn+2]` [ZnSO4], the Relative esterase activity at UmChlE [2] (setting [3]) was 76 (1.26) %; at UmChlE [2] (5 mM additive, 1 mM (or 1.95 mM) methyl ferulate, without additive = 100 %, standard error in parentheses, ND = activity not detectable, listed as Zn^2+) it was 50 - 76%.

Take `[Cl][Fe]([Cl])[Cl]` [FeCl3]: the Relative esterase activity on UmChlE [2] (setting [3]) was 66 (0.65) %.

For `O=[N+]([O-])[O-].O=[N+]([O-])[O-].[Sr+2]` [SrNO3], the Relative esterase activity on UmChlE [2] (setting [3]) is given as 104 (0,18) %.

In the case of `CC(=O)[O-].CC(=O)[O-].[Hg+2]` [HgAc2], the Relative esterase activity result on UmChlE [2] (setting [3]) is “complete loss of enzyme activity”.

On to `[Cl-].[K+]` [KCI], for which the Relative esterase activity on UmChlE [2] (setting [3]) is recorded as 108 (0.57) %.

Consider `COC(=O)/C=C/c1cc(OC)c(O)c(OC)c1` [methyl sinapate], for which the figures for the Relative esterase activity result at UmChlE [1] and on UmChlE [1] (listed as MSA) were “no” and “total loss of activity”, respectively.

Consider `COc1cc(/C=C/C(=O)OC[C@@H]2OC(O)[C@H](O)[C@H]2O)ccc1O` (stereo partly drawn) [F-A, 5-O-trans-feruloyl-L-arabinofuranose], for which the Specific activity at RsChlE amounted to 4.48 U/mg. Also, the Specific esterase activity on UmChlE [1] was 2.0 U mg^-1 and 2.06 U mg^-1.

Regarding `[Cl-].[Cl-].[Co+2]` [CoCl2], the Relative esterase activity was 67 (0.11) % at UmChlE [2] (setting [3]) and 50 - 76% at UmChlE [2] (5 mM additive, 1 mM (or 1.95 mM) methyl ferulate, without additive = 100 %, standard error in parentheses, ND = activity not detectable, listed as Co^2+).

In the case of `[Cl-].[Cs+]` [CsCl], the Relative esterase activity at UmChlE [2] (setting [3]) is on record as 105 (1.21) %.

As to `CCCCCCCCCCCCOS(=O)(=O)O` [SDS], the inhibition at 5000 µM on UmChlE [2] (read-out: enzyme activity was inhibited) came out at 41%.

For `CCOC(=O)/C=C/c1ccc(O)c(OC)c1` [ethyl ferulate], the Specific activity at RsChlE is recorded as 3.60 U/mg. On UmChlE [1], this compound displayed a Specific esterase activity of 0.78 U mg^-1.

In the case of `O=S(=O)([O-])[O-].[Mn+2]` [MnSO4], the Relative esterase activity at UmChlE [2] (setting [3]) is given as 90 (0.09) %; at UmChlE [2] (5 mM additive, 1 mM (or 1.95 mM) methyl ferulate, without additive = 100 %, standard error in parentheses, ND = activity not detectable, listed as Mn^2+) it was 90%.

For the compound `[Cl-].[Na+]` [NaCl], the Relative esterase activity at UmChlE [2] (100 mM additive, methyl ferulate) was 105 (0.02) %; at UmChlE [2] (500 mM additive, methyl ferulate), 121 (0.01) %; at UmChlE [2] (1000 mM additive, methyl ferulate), 125 (0.02) %; at UmChlE [2] (2000 mM additive, methyl ferulate) it was 142 (0.06) %; on UmChlE [2] (3000 mM (3 M) additive, methyl ferulate) it was 150% and 150 (0.04) %.

Take `[Cl-].[Cl-].[Mg+2]` [MgCl2]: on UmChlE [2] (setting [3]), the Relative esterase activity is reported as 106 (0. 53) %.

On RsChlE, `CCOC(=O)C=Cc1ccccc1` [ethyl cinnamate] registered a Specific activity of 0.91 U/mg.

Consider `[Ca+2].[Cl-].[Cl-]` [CaCl2], for which, at UmChlE [2] (setting [3]), the Relative esterase activity is on record as 103 (2.76) %.

Regarding `COC(=O)C=Cc1ccccc1` [methyl cinnamate], the Specific activity at RsChlE worked out at 2.10 U/mg.

With `O=[N+]([O-])[O-].O=[N+]([O-])[O-].[Cu+2]` [Cu(NO3)2], the Relative esterase activity at UmChlE [2] (setting [3]) is recorded as 96 (0.53) %.

The compound `COc1cc(/C=C/C(=O)OC[C@@H]2OC(O)[C@H](O[C@@H]3OC[C@@H](O)[C@H](O)[C@H]3O[C@@H]3O[C@@H](CO)[C@@H](O)[C@@H](O)[C@@H]3O)[C@H]2O)ccc1O` (stereo partly drawn) [F-AXG, α-L-galactopyranosyl-(1→2)-β-D-xylopyranosyl-(1→2)-5-O-trans-feruloyl-L-arabinofuranose] had a Specific activity at RsChlE of 3.66 U/mg. In addition, the Specific esterase activity at UmChlE [1] is 0.9 U mg^-1 and 0.92 U mg^-1.

Regarding `O=S(=O)([O-])[O-].[Ni+2]` [NiSO4], the Relative esterase activity on UmChlE [2] (setting [3]) is reported as 108 (0.87) %.

Consider `[Cl-].[Li+]` [LiCI], for which the Relative esterase activity on UmChlE [2] (setting [3]) was 106 (1.39) %.
